Measured values reported in paper PMC8037650, “Biochemical Characterization of Recombinant UDPG-Dependent IAA Glucosyltransferase from Maize (Zea mays)” (International Journal of Molecular Sciences, 2021).

Legend:
IAGlc synthase [1] = target: T1, IAGlc synthase (Zea mays, UniProt Q41819); assay: […]IAA glucosylation TLC radioassay, Dixon plot; format: biochemical
T1 construct: gene IAGLU; recombinant, N-terminally His-tagged, expressed in E. coli
T1 sequence (Q41819 1-471): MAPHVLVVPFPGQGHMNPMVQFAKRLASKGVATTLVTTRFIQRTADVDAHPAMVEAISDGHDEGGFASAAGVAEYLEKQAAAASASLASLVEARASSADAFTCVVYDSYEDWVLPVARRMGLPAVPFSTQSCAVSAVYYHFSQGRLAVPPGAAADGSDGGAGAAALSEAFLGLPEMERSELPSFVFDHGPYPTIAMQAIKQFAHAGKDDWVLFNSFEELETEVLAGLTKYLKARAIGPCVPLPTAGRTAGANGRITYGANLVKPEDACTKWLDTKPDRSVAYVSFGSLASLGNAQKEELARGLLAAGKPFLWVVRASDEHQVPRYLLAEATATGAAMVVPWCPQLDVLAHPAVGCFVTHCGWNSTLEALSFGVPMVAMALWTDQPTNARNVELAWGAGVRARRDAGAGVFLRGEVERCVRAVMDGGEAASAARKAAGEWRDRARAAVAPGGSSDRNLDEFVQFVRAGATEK

IAGlc synthase [2] = target: T1, IAGlc synthase; assay: coupled spectrophotometric assay, […] acceptor (relative activity); format: biochemical

Row | SMILES | Ki (IAGlc synthase [1]) [µM] | Relative Activity (%) (IAGlc synthase [2])
1 | O=C(O)COc1ccc(Cl)cc1Cl [2,4-D, 2,4-dichlorophenoxyacetic acid] | 117 ± 10 | –
2 | O=C(O)CCCc1c[nH]c2ccccc12 [IBA, indole-3-butyric acid] | – | 66
3 | O=C(O)CCc1c[nH]c2ccccc12 [IPA, indole-3-propionic acid] | – | 49.7
